Measurements from ChEMBL document CHEMBL5500384, “New synergistic benzoquinone scaffolds as inhibitors of mycobacterial cytochrome bc1 complex to treat multi-drug resistant tuberculosis” (Eur J Med Chem, 2024).
In brackets after ≈: the same amount, converted by molar mass.

Assays:
[1] = Acute toxicity in Albino mouse assessed as change in serum creatine level at 50 to 2000 mg/kg, po measured after 14 days (reference value: 0.9 mg/dl); type: organism-based; settings: in vivo, 336 h, dose 50-2000 mg/kg, time 14 day
[2] = Acute toxicity in Albino mouse assessed as mortality at 300 mg/kg, po after 14 days; type: organism-based; settings: in vivo, 336 h, time 14 day
[3] = Pulmonary toxicity in Albino mouse assessed as appearance of cilia at 50 to 2000 mg/kg, po measured after 14 days; type: organism-based; settings: in vivo, 336 h, dose 50-2000 mg/kg, time 14 day
[4] = Acute toxicity in Albino mouse assessed as mortality at 2000 mg/kg, po after 2 to 4 hrs; type: organism-based; settings: in vivo, time 2-4 hrs
[5] = Acute toxicity in Albino mouse assessed as change in ALP level at 50 to 2000 mg/kg, po measured after 14 days (reference value: 28 IU/L); type: organism-based; settings: in vivo, 336 h, dose 50-2000 mg/kg, time 14 day
[6] = Acute toxicity in Albino mouse assessed as change in neutrophils at 50 to 2000 mg/kg, po measured after 14 days (reference value: 75%); type: organism-based; settings: in vivo, 336 h, dose 50-2000 mg/kg, time 14 day
[7] = Acute toxicity in Albino mouse assessed as change in monocytes at 50 to 2000 mg/kg, po measured after 14 days (reference value: 1%); type: organism-based; settings: in vivo, 336 h, dose 50-2000 mg/kg, time 14 day
[8] = Pulmonary toxicity in Albino mouse assessed as change in alveoli structure at 50 to 2000 mg/kg, po measured after 14 days; type: organism-based; settings: in vivo, 336 h, dose 50-2000 mg/kg, time 14 day
[9] = Renal toxicity in Albino mouse assessed as change in renal tubules at 50 to 2000 mg/kg, po measured after 14 days; type: organism-based; settings: in vivo, 336 h, dose 50-2000 mg/kg, time 14 day
[10] = Pulmonary toxicity in Albino mouse assessed as change in alveolar sacs at 50 to 2000 mg/kg, po measured after 14 days; type: organism-based; settings: in vivo, 336 h, dose 50-2000 mg/kg, time 14 day
[11] = Acute toxicity in Albino mouse assessed as change in eosinophils at 50 to 2000 mg/kg, po measured after 14 days (reference value: 3%); type: organism-based; settings: in vivo, 336 h, dose 50-2000 mg/kg, time 14 day
[12] = Cytotoxicity against african green monkey Vero cells assessed as cell viability at 100 ug/ml by MTT assay; type: toxicity, cell-based; settings: chlorocebus sabaeus, at 100 µg/mL, read-out: Activity
[13] = Hepatotoxicity in Albino mouse assessed as change in bile duct at 50 to 2000 mg/kg, po measured after 14 days; type: toxicity, organism-based, Liver; settings: in vivo, 336 h, dose 50-2000 mg/kg, time 14 day
[14] = Cytotoxicity against african green monkey Vero cells by MTT assay; type: toxicity, cell-based; settings: chlorocebus sabaeus
[15] = Acute toxicity in Albino mouse assessed as change in RBC count measured per million cells at 50 to 2000 mg/kg, po measured after 14 days (reference value: 9.15 microL); type: organism-based, Erythrocyte; settings: in vivo, 336 h, dose 50-2000 mg/kg, time 14 day
[16] = Acute toxicity in Albino mouse assessed as change in SGOT count at 50 to 2000 mg/kg, po measured after 14 days (reference value: 42 IU/L); type: organism-based; settings: in vivo, 336 h, dose 50-2000 mg/kg, time 14 day
[17] = Hepatotoxicity in Albino mouse assessed as change in hepatic artery at 50 to 2000 mg/kg, po measured after 14 days; type: toxicity, organism-based, Liver; settings: in vivo, 336 h, dose 50-2000 mg/kg, time 14 day
[18] = Renal toxicity in Albino mouse assessed as change in Bowman's capsule at 50 to 2000 mg/kg, po measured after 14 days; type: organism-based; settings: in vivo, 336 h, dose 50-2000 mg/kg, time 14 day
[19] = Acute toxicity in Albino mouse assessed as change in ESR at 50 to 2000 mg/kg, po measured after 14 days (reference value: 10 millimeter); type: organism-based; settings: in vivo, 336 h, dose 50-2000 mg/kg, time 14 day
[20] = Renal toxicity in Albino mouse assessed as extravasation of RBC at 50 to 2000 mg/kg, po measured after 14 days; type: organism-based, Erythrocyte; settings: in vivo, 336 h, dose 50-2000 mg/kg, time 14 day
[21] = Renal toxicity in Albino mouse assessed as change in distal convoluted tubules at 50 to 2000 mg/kg, po measured after 14 days; type: organism-based; settings: in vivo, 336 h, dose 50-2000 mg/kg, time 14 day
[22] = Acute toxicity in Albino mouse assessed as change in LDH level at 50 to 2000 mg/kg, po measured after 14 days (reference value: 1052 IU/L); type: organism-based; settings: in vivo, 336 h, dose 50-2000 mg/kg, time 14 day
[23] = Acute toxicity in Albino mouse assessed as change in serum urea level at 50 to 2000 mg/kg, po measured after 14 days (reference value: 46 mg/dl); type: organism-based; settings: in vivo, 336 h, dose 50-2000 mg/kg, time 14 day
[24] = Renal toxicity in Albino mouse assessed as change in proximal convoluted tubules at 50 to 2000 mg/kg, po measured after 14 days; type: organism-based; settings: in vivo, 336 h, dose 50-2000 mg/kg, time 14 day
[25] = Pulmonary toxicity in Albino mouse assessed as appearance of goblet cells at 50 to 2000 mg/kg, po measured after 14 days; type: organism-based; settings: in vivo, 336 h, dose 50-2000 mg/kg, time 14 day
[26] = Cytotoxicity against african green monkey Vero cells assessed as cell viability at 6.25 ug/ml by MTT assay; type: toxicity, cell-based; settings: chlorocebus sabaeus, at 6.25 µg/mL, read-out: Activity
[27] = Acute toxicity in Albino mouse assessed as change in SGPT count at 50 to 2000 mg/kg, po measured after 14 days (reference value: 52 IU/L); type: organism-based; settings: in vivo, 336 h, dose 50-2000 mg/kg, time 14 day
[28] = Acute toxicity in Albino mouse assessed as change in total leucocyte count at 50 to 2000 mg/kg, po measured after 14 days (reference value: 7400 mm3); type: organism-based; settings: in vivo, 336 h, dose 50-2000 mg/kg, time 14 day
[29] = Cytotoxicity against african green monkey Vero cells assessed as cell viability at 25 ug/ml by MTT assay; type: toxicity, cell-based; settings: chlorocebus sabaeus, at 25 µg/mL, read-out: Activity
[30] = Acute toxicity in Albino mouse assessed as change in hemoglobin level at 50 to 2000 mg/kg, po measured after 14 days (reference value: 12.8 g/dl); type: organism-based; settings: in vivo, 336 h, dose 50-2000 mg/kg, time 14 day
[31] = Hepatotoxicity in Albino mouse assessed as change in hepatocytes at 50 to 2000 mg/kg, po measured after 14 days; type: toxicity, organism-based; settings: in vivo, 336 h, dose 50-2000 mg/kg, time 14 day
[32] = Cytotoxicity against african green monkey Vero cells assessed as cell viability at 12.5 ug/ml by MTT assay; type: toxicity, cell-based; settings: chlorocebus sabaeus, at 12.5 µg/mL, read-out: Activity
[33] = Renal toxicity in Albino mouse assessed as change in renal corpuscles at 50 to 2000 mg/kg, po measured after 14 days; type: organism-based; settings: in vivo, 336 h, dose 50-2000 mg/kg, time 14 day
[34] = Acute toxicity in po dosed Albino mouse assessed as mortality after 14 days; type: organism-based; settings: in vivo, time 14 day
[35] = Acute toxicity in Albino mouse assessed as change in lymphocytes at 50 to 2000 mg/kg, po measured after 14 days (reference value: 21%); type: organism-based; settings: in vivo, 336 h, dose 50-2000 mg/kg, time 14 day
[36] = Renal toxicity in Albino mouse assessed as change in tubular capillaries at 50 to 2000 mg/kg, po measured after 14 days; type: organism-based; settings: in vivo, 336 h, dose 50-2000 mg/kg, time 14 day
[37] = Cytotoxicity against african green monkey Vero cells assessed as cell viability at 3.125 ug/ml by MTT assay; type: toxicity, cell-based; settings: chlorocebus sabaeus, at 3.125 µg/mL, read-out: Activity
[38] = Hepatotoxicity in Albino mouse assessed as change in portal tracks at 50 to 2000 mg/kg, po measured after 14 days; type: toxicity, organism-based; settings: in vivo, 336 h, dose 50-2000 mg/kg, time 14 day
[39] = Renal toxicity in Albino mouse assessed as structural absorbability abnormalities at 50 to 2000 mg/kg, po measured after 14 days; type: organism-based; settings: in vivo, 336 h, dose 50-2000 mg/kg, time 14 day
[40] = Acute toxicity in Albino mouse assessed as change in platelet count at 50 to 2000 mg/kg, po measured after 14 days (reference value: 3.24 mm3); type: organism-based; parameters: unit not given here; settings: in vivo, 336 h, dose 50-2000 mg/kg, time 14 day
[41] = Hepatotoxicity in Albino mouse assessed as change in central vein at 50 to 2000 mg/kg, po measured after 14 days; type: toxicity, organism-based; settings: in vivo, 336 h, dose 50-2000 mg/kg, time 14 day
[42] = test system: Mycobacterium tuberculosis; experiment: Antitubercular activity against Mycobacterium tuberculosis H37Rv incubated for 5 days by microtiter plate method; type: functional; settings: 120 h, time 5 day
[43] = Cytotoxicity against african green monkey Vero cells assessed as cell viability at 50 ug/ml by MTT assay; type: toxicity, cell-based; settings: chlorocebus sabaeus, at 50 µg/mL, read-out: Activity
[44] = Pulmonary toxicity in Albino mouse assessed as change in squamous pneumocytes at 50 to 2000 mg/kg, po measured after 14 days; type: organism-based; settings: in vivo, 336 h, dose 50-2000 mg/kg, time 14 day
[45] = Hepatotoxicity in Albino mouse assessed as change in portal vein at 50 to 2000 mg/kg, po measured after 14 days; type: toxicity, organism-based; settings: in vivo, 336 h, dose 50-2000 mg/kg, time 14 day
[46] = Pulmonary toxicity in Albino mouse assessed as change in bronchi structure at 50 to 2000 mg/kg, po measured after 14 days; type: organism-based; settings: in vivo, 336 h, dose 50-2000 mg/kg, time 14 day

Question: For CCOc1cc(C2C(Cl)C(=O)N2C2=C(Cl)C(=O)c3ccccc3C2=O)ccc1O (stereo unspecified), which Activity [1] is on record?
Answer: < 0.3 mg/dL

Question: What about the Activity [2] of the same compound?
Answer: Non-Toxic

Question: And the Activity [3]?
Answer: Non-Toxic

Question: And the Activity [4]?
Answer: Toxic

Question: What about the Activity [5] of the same compound?
Answer: 832.75 IU/L

Question: And the Activity [6]?
Answer: 66%

Question: And the Activity [7]?
Answer: 1%

Question: What about the Activity [8] of the same compound?
Answer: Non-Toxic

Question: What about the Activity [9] of the same compound?
Answer: Non-Toxic

Question: What about the Activity [10] of the same compound?
Answer: Non-Toxic

Question: What about the Activity [11] of the same compound?
Answer: 3%

Question: And the viability at 100 ug/ml [12]?
Answer: 10.4%

Question: What about the Activity [13] of the same compound?
Answer: Non-Toxic

Question: What about the Activity [14] of the same compound?
Answer: Dose-Dependent Effect

Question: What about the Activity [15] of the same compound?
Answer: 8.95

Question: What about the Activity [16] of the same compound?
Answer: 168.67 IU/L

Question: What about the Activity [17] of the same compound?
Answer: Non-Toxic

Question: What about the Activity [18] of the same compound?
Answer: Non-Toxic

Question: What about the Activity [19] of the same compound?
Answer: 11 millimeter/hr

Question: What about the Activity [20] of the same compound?
Answer: Non-Toxic

Question: What about the Activity [21] of the same compound?
Answer: Non-Toxic

Question: What about the Activity [22] of the same compound?
Answer: 470.21 IU/L

Question: What about the Activity [23] of the same compound?
Answer: 35.72 mg/dL

Question: And the Activity [24]?
Answer: Non-Toxic

Question: And the Activity [25]?
Answer: Non-Toxic

Question: What about the viability at 6.25 ug/ml [26] of the same compound?
Answer: 100%

Question: What about the Activity [27] of the same compound?
Answer: 75.33 IU/L

Question: And the Activity [28]?
Answer: 8200 mm3

Question: And the viability at 25 ug/ml [29]?
Answer: 67.8%

Question: What about the Activity [30] of the same compound?
Answer: 12.5 g/dL

Question: What about the Activity [31] of the same compound?
Answer: Non-Toxic

Question: What about the viability at 12.5 ug/ml [32] of the same compound?
Answer: 100%

Question: What about the Activity [33] of the same compound?
Answer: Non-Toxic

Question: And the LD50 at 336 h [34]?
Answer: 300 mg/kg

Question: What about the Activity [35] of the same compound?
Answer: 34%

Question: What about the Activity [36] of the same compound?
Answer: Non-Toxic

Question: And the viability at 3.125 ug/ml [37]?
Answer: 100%

Question: What about the Activity [38] of the same compound?
Answer: Non-Toxic

Question: And the Activity [39]?
Answer: Non-Toxic

Question: What about the Activity [40] of the same compound?
Answer: 4.9

Question: And the Activity [41]?
Answer: Non-Toxic

Question: What about the MIC [42] of the same compound?
Answer: 14.5 µM (≈ 6.25 µg/mL)

Question: And the viability at 50 ug/ml [43]?
Answer: 30.6%

Question: What about the Activity [44] of the same compound?
Answer: Non-Toxic

Question: And the Activity [45]?
Answer: Non-Toxic

Question: And the Activity [46]?
Answer: Non-Toxic
